Patent US20210371413A1, “POLYCYCLIC AMIDES AS CYTOTOXIC AGENTS” (FEMTOGENIX LIMITED, priority 2018, published 2021)

Tests used:
[1] = test system: 5′-[…]-3′ (poly GC) DNA duplex; experiment: FRET DNA melting, poly GC duplex; assay type: binding; details: FRET melting, FIG. 2 bottom panel (poly GC duplex)
Experimental: (§1) FRET DNA melting studies were undertaken on 15 and 16 using two fluorescently labelled sequences. The sequences (FIG. 1) were designed to represent poly AT and poly GC sequences.
(§2) The short duplexes used in this FRET study are relatively unstable in the duplex form with a melting temperature below 30° C. so that, in the absence of ligand, a large part of the melting occurs below the starting temperature of the experiment. However, it can be observed that 15 stabilizes the duplex form, producing increases in melting temperature with ΔTm values of […] for 5′-AAAAAAAGAAAAAATIT-3′ (FIG. 2, top panel), and ˜25° C. (FIG. 2, bottom panel).
(§3) Oligonucleotides were obtained from ATDbio (Southampton, UK) in lyophilised form. […]
(§4) The reaction mixture was comprised of 4 μL of 250 mM phosphate buffer (final concentration of 50 mM), 4 μL flourophor and 4 μL quencher molecule of the appropriate oligonucleotide for a final concentration of 0.2 μM, 4 μL 5 M sodium chloride (final concentration of 1 M NaCl), and 4 μL of distilled H2O. […] This mixture was analysed without prior annealing.
(§5) Fluorescence melting profiles were measured using a Roche LightCycler using a total reaction volume of 20 μL. […] Annealing steps and melting steps were all recorded and changes in fluorescence were measured at 520 nm. […]

DS3 DNA fragment = experiment: DNA footprinting, DS3 DNA fragment; assay type: binding; details: DS3 DNA sequence
Experimental: The DNA sequence selectivity profile of the molecules was investigated using a modification of the previously established DNA footprinting assay. Following an overnight incubation of the ligand-DNA complexes, the mixture was mixed with strand separation buffer containing 10 mM EDTA, 10 mM NaOH, 0.1% bromophenol blue, 80% formamide and incubated at 100° C. for 3 min. The mixture was then immediately cooled on ice and run on an 8% denaturing gel.
The preparation of the DS3 DNA fragment (FIG. 5) and the “D” DNA fragment (FIG. 6) has been previously described. Briefly, the sequence which had been cloned into the BamHI site of pUC18 was obtained by cutting with HindIII and EcoRI. Radiolabelled DNA fragments were prepared by filling in the 3′-end of the HindIII site with [α-^32P]dATP using Klenow DNA polymerase (exo-).
The radiolabelled DNA fragment was separated from the remainder of the plasmid DNA on a 6% non-denaturing polyacrylamide gel. The gel (20 cm long, 0.3 mm thick) was run at 400 V in 1×TBE running buffer for about 1-2 h, until the bromophenol blue had run most of the way down the gel. The glass plates were separated and the position of the labelled DNA fragment was established by short (1 min) exposure to an X-ray film. The relevant band was then cut from the gel and the radiolabelled DNA eluted by adding 300 μL 10 mM Tris-HCl, pH 7.5 containing 0.1 mM EDTA and gently agitating overnight at room temperature. The eluted DNA was finally precipitated with ethanol and re-suspended in a suitable volume of 10 mM Tris-HCl, pH 7.5 containing 0.1 mM EDTA buffer so as to give at least 10 counts per second/μL on a hand-held Geiger counter. […]
Footprinting reactions were performed as previously described using the DNA fragments DS3, which contains tracts of AT/GC bases; and using the “D” DNA fragments which represents a random DNA sequence. […] After gel purification, the radiolabelled DNA was dissolved in 10 mM Tris-HCl pH 7.5 containing 0.1 mM EDTA, at a concentration of about 10 c.p.s per μL as determined on a hand held Geiger counter. […]

[2] = test system: 5′-AAAAAAAGAAAAAATIT-3′ (poly AT) DNA duplex; experiment: FRET DNA melting, poly AT duplex; assay type: binding; details: fragments of 15, FIG. 3; duplex not specified
Experimental: as §1, §2, §3, §4, §5

calf thymus DNA = details: cited from earlier work

Structure (SMILES): COc1cc2c(cc1OCCCC(=O)Nc1cc(C(=O)Nc3ccc(-c4cc(C(=O)Nc5ccc(N)cc5)n(C)c4)cc3)n(C)c1)N=C[C@@H]1CCCCN1C2=O [Compound 15, (S)—N-(4-aminophenyl)-4-(4-(4-(4-((2-methoxy-12-oxo-6a,7,8,9,10,12-hexahydrobenzo[e]pyrido[1,2-a][1,4]diazepin-3-yl)oxy)butan-amido)-1-methyl-1H-pyrrole-2-carboxamido)phenyl)-1-methyl-1H-pyrrole-2-carboxamide]
- ΔTm (increase in melting temperature) [1]: ~25 °C
- DNA binding pattern (footprint) (DS3 DNA fragment): bind to tracts of DNA where a GC base is present

Structure (SMILES): Cn1cc(N)cc1C(=O)Nc1ccc(-c2cc(C(=O)Nc3ccc(N)cc3)n(C)c2)cc1 [Compound 32, 4-Amino-N-(4-(5-((4-aminophenyl)carbamoyl)-1-methyl-1H-pyrrol-3-yl)phenyl)-1-methyl-1H-pyrrole-2-carboxamide]
- DNA stabilisation (FRET denaturation) [2]: failed to stabilise DNA

Structure (SMILES): Cc1ccc2c(c1O)NC(O)C1CC(/C=C/C(N)=O)=CN1C2=O (centres unmarked) [anthramycin]
- thermal stabilization (ΔTm) (calf thymus DNA): 13.1 °C

Structure (SMILES): COc1cc2c(cc1O)N=C[C@@H]1CCCCN1C2=O [Compound 28, (S)-3-Hydroxy-2-methoxy-7,8,9,10-tetrahydrobenzo[e]-pyrido[1,2-a][1,4]diazepin-12(6aH)-one]
- DNA stabilisation (FRET denaturation) [2]: failed to stabilise DNA
